Source: patent publication US8318184B2, “MGLU2 agonists” (Eli Lilly and Company, priority 2009, dated 2012)

Key:
Sprague-Dawley rats [1] = experiment: Reversal of Phencyclidine (PCP)-Induced Hyperlocomotor Activity in Rats; type: in vivo; conditions: Rattus norvegicus
From the text: Administration of NMDA receptor antagonists, such as ketamine or phencyclidine (PCP), produces psychotomimetic-like effects in humans that are similar to those symptoms observed in patients with schizophrenia.
Motor activity is monitored by placing individual male, Sprague-Dawley (Harlan, Indianapolis, Ind.) rats in transparent, plastic shoe-box cages of the dimensions 45×25×20 cm, with 1 cm depth of wood chips as bedding, and a metal grill on top of the cage. Motor monitors (Kinder Scientific) consist of a rectangular rack of 12 photobeams arranged in an 8×4 formation, (or a high density grouping of 22 in a 15×7 pattern) at a height of 5 cm, with a second rack (for measuring rearing behaviors) at a height of 15 cm. The shoe box cage is placed inside of these racks, with the racks on a 3 foot high tabletop in an isolated room. A compound of the present invention is dosed (intraperitoneal route (i.p.), non-prodrug) within a range of 0.3-10 mg/kg, 30 minutes prior to a 5 mg/kg challenge dose of phencyclidine (PCP). A compound of the present invention is dosed (oral route, prodrug) within a range of 0.3-30 mg/kg, in overnight fasted rats, 4 hours prior to a 5 mg/kg challenge dose of PCP. On the test day, rats are placed in the test cage and allowed to acclimate for 30 minutes prior to PCP challenge; rats are monitored for an additional 60 minutes following PCP administration.
Data analysis and ED50 calculations are conducted using GraphPad Prism (San Diego, Calif. USA). Power analyses have determined that 8-10 rats per group are needed to have appropriate statistical power for detecting treatment differences (power=0.8). A one-way analysis of variance (ANOVA) with a post-hoc Dunnett's multiple comparison test is conducted on the total 60 minute locomotor activity. ED50 calculations are performed using non-linear regression curve fitting on percent reversal transformed data for each dose.

Fischer F-344 rats = experiment: Attenuation of Stress-Induced Hyperthermia in Rats; type: in vivo, rat; conditions: dose producing 35% reduction in stress-induced hyperthermic response
From the text: In many anxiety disorders, hyperthermia occurs as part of the pathology and is considered a symptom of the disease. Compounds which attenuate stress-induced hyperthermia in animals are believed to be useful in treating anxiety disorders in humans. Generalized anxiety disorder is an example of such disorders that may be treated with such compounds. The conventional and minimally-invasive method for analyzing stress-induced hyperthermia is by measuring body temperature, and stress-induced increases in body temperature, via rectal thermometer. Male Fischer F-344 rats (Harlan, Indianapolis, Ind., USA) weighing between 275-350 g are tested. All animals are individually-housed with food and automated water available ad libitum, and maintained on a 12 h light/dark cycle (lights on at 06:00). Animals are fasted for approximately 12-18 hours before the experiment, which is conducted during the light phase. Rats are dosed two hours prior to the experiment by either intraperitoneal (i.p., non-prodrug) or per os (p.o., prodrug) route of administration in a dose volume of 1 mL/kg. […]
After the pretreatment period, rats are taken individually to a brightly lit adjacent room where baseline body temperatures are determined by insertion of a rectal probe lubricated with mineral oil. Body temperature is assessed using a […] […] Ten minutes later a second body temperature measurement is recorded (T2). […]

Sprague-Dawley rats [2] = experiment: Forced Swim Test in rats; type: in vivo, rat
Procedure: In this assay, mechanisms with purported antidepressant-like activity decrease immobility in a brief inescapable forced swim episode.
The forced-swim test is conducted with both mice (male, NIH-Swiss mice, 20-25 g, Harlan Sprague-Dawley, Indianapolis, Ind.) and rats (male, Sprague-Dawley rats, 250-350 g, Harlan Sprague-Dawley, Indianapolis, Ind.). Mice are placed in clear plastic cylinders (diameter 10 cm; height: 25 cm) filled to 6 cm with 22-25° C. water for six min. The duration of immobility is recorded during the last 4 min of a six-minute trial. Rats are treated similarly, albeit in clear plastic cylinders of larger dimensions (diameter: 18 cm; height: 40 cm) filled with water (22-25° C.) to a depth of 16 cm for 15 min. Additionally, mice receive a single forced swim exposure; rats receive two, 5-min sessions separated by 24 hours (data is recorded only on Day 2). The compound of Example 1 is tested in mice using intraperitoneal dosing (1, 3, or 10 mg/kg), 60 min prior to testing. […] Example 2 is administered 5 min following the first forced swim exposure and 120 min prior to the test session on Day 2. Imipramine is used as a positive control for these studies. Compounds are formulated in a water vehicle, with minimal NaOH being added to Example 1 and Example 2. Compounds are in a clear solution. The amount of time spent immobile (defined as movements only necessary to keep the subject's head above water) is the dependent measure and recorded by an observer blinded to the drug treatment of the subjects. Data are analyzed by post-hoc Dunnett's test with alpha level set at 0.05. The mouse version of the forced swim test is most commonly used. An ED60 value (60% of the amount of immobility relative to vehicle controls) is calculated to estimate potency of the test compounds.

Compound: N[C@@]1(C(=O)O)C[C@@H](Sc2nnc[nH]2)[C@H]2[C@H](C(=O)O)[C@H]21 [Example 1, (1R,2S,4R,5R,6R)-2-Amino-4-(4H-1,2,4-triazol-3-ylsulfanyl)bicyclo[3.1.0]hexane-2,6-dicarboxylic acid]
- ED50 (Sprague-Dawley rats [1]; 0.5 h, i.p., 30 minutes prior to 5 mg/kg PCP): 1.23 mg/kg
- T35 (Fischer F-344 rats; i.p.): 1.27 mg/kg

Compound: C[C@H](N)C(=O)N[C@@]1(C(=O)O)C[C@@H](Sc2nnc[nH]2)[C@H]2[C@H](C(=O)O)[C@H]21.Cl [Example 2, (1R,2S,4R,5R,6R)-2-[[(2S)-2-Aminopropanoyl]amino]-4-(1H-1,2,4-triazol-3-ylsulfanyl)bicyclo[3.1.0]hexane-2,6-dicarboxylic acid hydrochloride]
- ED50 (Sprague-Dawley rats [1]; p.o., overnight fasted, 4 hours prior to 5 mg/kg PCP): 2.94 mg/kg
- maximal effect, immobility as % of vehicle-treated rats (Sprague-Dawley rats [2]; oral dosing): 68%
- immobility time (Sprague-Dawley rats [2]; oral, following dosing with 4.1 and 13.8 mg/kg, F(4,29)=14.72, p<0.0001): significantly decreased immobility time
- T35 (Fischer F-344 rats; p.o.): 16.2 mg/kg
